The source of these data is US6599933B2, “Tocotrienol derivative, process for producing the same and γ-CEHC delivering agent” (Kenko Corporation, priority 2000, dated 2003).

For data set [1] the following is noted: racemic γ-CEHC administered to SD rat intravenously; cited from earlier work.
Data set [2] is described as follows: Hydrolyzability test in rat plasma solution. The class given is in vitro ADME. The following applies: 37° C., production of tocotrienol, Michaelis-Menten model. How it is done:
(§1) d-α-tocotrienol N,N-dimethylaminoacetate hydrochloride (Example 5:hereinafter, d-α-T3DMA), d-α-tocotrienol N-methylaminoacetate hydrochloride (Example 2:hereinafter, d-α-T3MA), d-γ-tocotrienol N,N-dimethylaminoacetate hydrochloride (Example 6:hereinafter, d-γ-T3DMA), d-γ-tocotrienol N-methylaminoacetate hydrochloride (Example 4:hereinafter, d-γ-T3MA), or d-γ-tocotrienolaminoacetate hydrochloride (Example 3:hereinafter, d-γ-T3AA) were added to a solution of SD rat liver microsome and rat plasma in an isotonic phosphate buffer, and d-α-tocotrienol and d-γ-tocotrienol produced in the reaction solution at 37° C. with time were measured by high performance liquid chromatography (HPLC).
(§2) As Comparative Example, a hydrolysis test was performed on d-α-tocotrienolsuccinic acid ester (hereinafter, d-α-T3S) and d-γ-tocotrienolsuccinic acid ester (hereinafter, d-γ-T3S) similarly.
(§3) HPLC conditions: Column was CAPCELL PAK UG120, a mobile phase was methanol-acetonitrile (5:5 v/v), a rate was 0.7 ml/min, and detection was carried out by absorbance of 283 nm and fluorescent intensity (excitation 298 nm, fluorescent 325 nm).
(§4) Dynamic parameters of production of d-α-tocotrienol and d-γ-tocotrienol in a solution of rat liver microsome and rat plasma according to Micaelis-Menten model are shown in Tables 4 and 5.

Data set [3] in a line: Hydrolyzability test in rat liver microsome solution. The class given is in vitro ADME. How it is done: as §1, §2, §3, §4
Data set [4] is described as follows: Animal Test Example 1: kinetics in rat after intravenous administration (plasma, liver, heart, kidney). Particulars: in vivo, 25 mg/kg. Set-up: species or system SD rat. On the procedure:
1) SD male rats (weighing 260-285 g) were used while a diet was changed to crystal sugar from 16 hours before drug administration. d-α-T3DMA (Example 5), d-γ-T3DMA (Example 6), d-α-tocotrienol (hereinafter, d-α-T3), or d-γ-tocotrienol (hereinafter, d-γ-T3) was administered into left femoral vein under slight anesthesia. A solution of d-α-T3DMA or d-γ-T3DMA to be administered was used by dissolving it in distilled water containing 10% propylene glycol, and filtering with membrane filter (0.22 μm). A solution of d-α-T3 and d-γ-T3 to be administered was used by dissolving it using a nonionic surfactant HCO-60. Administration amounts were set to be tocotrienol equivalent 25 mg/kg, respectively. 0.25, 0.5, 1, 2, 4, 8 and 24 hours after administration, blood was taken under ether anesthesia, and liver, heart and kidney were taken. Plasma was rapidly separated and taken. A 1.15% potassium chloride solution was added at a 3-fold amount of each organ weight was added thereto, which was homogenated. 0.7 ml of ethanol was added to 0.2 ml of each sample, the mixture was stirred for 2 minutes, centrifuged, and the supernatant was analyzed by the aforementioned HPLC.

Data set [5] can be described thus: Test Examples 2 and 3: S-γ-CEHC kinetics in plasma after intravenous administration to rat. The class given is in vivo, SD rat. On the procedure: A SD male rat, 7 weeks old, was used. A solution of γ-T3DMA to be administered was prepared into a d-γ-tocotrienol equivalent 25 mg/ml aqueous solution. The solution was administered intravenously into left femoram vein under slight ether anesthesia, blood was taken from external jugular vein with an injector for tuberculin treated with heparin with time, and plasma was taken after centrifugation. Plasma was stored at −80° C. till HPLC measurement. A γ-CEHC level in plasma was measured by the HPLC method which can fractionally quantitate optical isomers S-γ-CEHC and R-γ-CEHC (Hattori A., Fukushima T., Imai K., Anal. Biochem., 281, 209-215 (2000)). […] R-γ-CEHC was not detected in plasma after administration and only S-γ-CEHC was detected therein. […] Here, a S-γ-CEHC level after administration of racemic γ-CEHC is a value at racemic γ-CEHC 1 mg/kg. […] S-γ-CEHC in plasma was rapidly elevated after administration of γ-T3DMA and reached Cmax 1 hour after administration. […] Mean Retention Time (MRT) of a γ-T3DMA administered group is 6.64 hr and is an about 7-fold value as compared with MRT 1.00 hr of a racemic γ-CEHC administered group. From the foregoing, it can be understood that γ-T3DMA can enhance the S-γ-CEHC level in the living body and, further, can maintain the S-γ-CEHC level continuously for longer period of time.
The pharmacokinetics parameter represents an average of four animals and standard deviation. A dose is γ-T3 equivalent 25 mg/kg. F(%) was obtained by the following equation: […]
a Obtained by the Following Equation [formula]
wherein AUCS-γ-CEHC,γ-T3DM^Plasma and AUCS-γ-CEHC,racemicγ-CEHC^Plasma means AUC of S-γ-CEHC after administration of γ-T3DMA and racemic γ-CEHC, respectively, and Dγ-T3DMA and Dracemic γ-CEHC means a dose of γ-T3DMA and racemic γ-CEHC, respectively.
b Obtained by the Following Equation [formula]
wherein AUCS-γ-CEHC,γ-TDMA^Plasma means AUC of S-γ-CEHC after administration of γ-TDMA, and Dγ-TDMA means a dose of γ-TDMA.
γ-CEHC kinetics in plasma was studied by administering an aqueous γ-TDMA solution into rat's vein according to the same test procedure as those of Test Example 2. The γ-CEHC in plasma was all S-γ-CEHC and R-γ-CEHC was not detected. […] A level in plasma was rapidly elevated after administration, reached Cmax after 1 hr, and a S-γ-CEHC level was elevated clearly. […] Thus, it was shown that a level of S-γ-CEHC in the living body is efficiently elevated. Mean Retention Time (MRT) of a γ-TDMA administered group was 8.19 hr and was about 8-fold value as compared to MRT 1.00 hr of a racemic γ-CEHC administered group.

The nature of data set [6]: Water-solubility test. Particulars: 0.250 mmol in 5 ml distilled water, stirred at 20° C. for 24 hours, HPLC.
Setting [7] is: liver microsome, 37° C., production of tocotrienol, Michaelis-Menten model.
Where [8] appears, read: liver microsome, 37° C., production of tocotrienol, Michaelis-Menten model, read-out: Km.

The structures appear in SMILES notation.

Turning to `Cc1c(O)cc2c(c1C)O[C@@](C)(CCC(=O)O)CC2` [R-γ-CEHC], in data set [1], the “biological half-life in plasma” value is “about 1 hour”.
Consider `Cc1c(O)cc2c(c1C)OC(C)(CCC(=O)O)CC2` (stereo not shown) [S-γ-CEHC], for which the “biological half-life in plasma” value in data set [1] is no more than 2 minutes.
For `CC(C)=CCC/C(C)=C/CC/C(C)=C/CC[C@]1(C)CCc2c(C)c(OC(=O)CN(C)C)c(C)c(C)c2O1.Cl` [d-α-T3DMA, d-α-tocotrienol N,N-dimethylaminoacetate hydrochloride], in data set [2], the Km stood at 793 µM and the Vmax is 9.187e-08 M/min. Further, in data set [3], the Michaelis-Menten constant (Km) is 5970 µM and the Vmax/Km amounted to 0.02455 min⁻¹. Moreover, the Vmax in data set [3] (setting [7]) was found to be 0.0001465 M/min. Also, in data set [4], the “bioavailability of d-α-T3 in liver” value turned out to be 130%.
As to `CNCC(=O)Oc1c(C)c(C)c2c(c1C)CC[C@@](C)(CC/C=C(\C)CC/C=C(\C)CCC=C(C)C)O2.Cl` [d-α-T3MA, d-α-tocotrienol N-methylaminoacetate hydrochloride], the Km amounted to 1550 µM in data set [2] and 109 µM in data set [3]. For the same compound, the Vmax in data set [2] came to 5.808e-07 M/min; in data set [3] (setting [7]), 1.878e-06 M/min. In data set [3], the Vmax/Km amounted to 0.01111 min⁻¹.
For `CC(C)=CCC/C(C)=C/CC/C(C)=C/CC[C@]1(C)CCc2c(C)c(OC(=O)CCC(=O)O)c(C)c(C)c2O1` [d-α-T3S, d-α-tocotrienolsuccinic acid ester, reference compound] the same measures were 506 µM, 30.3 µM, 4.946e-08 M/min, 5.588e-08 M/min and 0.001846 min⁻¹.
As for `CC(C)=CCC/C(C)=C/CC/C(C)=C/CC[C@]1(C)CCc2cc(OC(=O)CN)c(C)c(C)c2O1.Cl` [d-γ-T3AA, d-γ-tocotrienol aminoacetate hydrochloride], the Km in data set [2] was determined as 5510 µM; in data set [3] (setting [8]), 1560 µM. The Vmax in data set [2] is 3.594e-05 M/min; in data set [3] (setting [7]), 7.716e-05 M/min.
Turning to `CC(C)=CCC/C(C)=C/CC/C(C)=C/CC[C@]1(C)CCc2cc(OC(=O)CN(C)C)c(C)c(C)c2O1.Cl` [d-γ-T3DMA, d-γ-tocotrienol N,N-dimethylaminoacetate hydrochloride], the values for the Km in data set [2] and in data set [3] (setting [8]) were 786 µM and 5580 µM, respectively. Besides, the Vmax in data set [2] was determined as 7.592e-06 M/min; in data set [3] (setting [7]) it was 0.000323 M/min. The “R-γ-CEHC in plasma after administration” value in data set [5] (intravenous, HPLC separating optical isomers) is on record as “not detected”. For the same compound, in data set [5] (intravenous, S-γ-CEHC in plasma), the “MRT as fold of MRT of racemic γ-CEHC administered group” value is reported as “about 7 fold”.
In the case of `CNCC(=O)Oc1cc2c(c(C)c1C)O[C@](C)(CC/C=C(\C)CC/C=C(\C)CCC=C(C)C)CC2.Cl` [d-γ-T3MA, d-γ-tocotrienol N-methylaminoacetate hydrochloride], the Km in data set [2] was 12700 µM; in data set [3] (setting [8]), 2100 µM. In addition, the maximum rate (Vmax) was 5.178e-05 M/min in data set [2] and 0.0001204 M/min in data set [3] (setting [7]).
For `CC(C)=CCC/C(C)=C/CC/C(C)=C/CC[C@]1(C)CCc2cc(OC(=O)CCC(=O)O)c(C)c(C)c2O1` [d-γ-T3S, d-γ-tocotrienolsuccinic acid ester, reference compound], in data set [2], the Michaelis constant (Km) was 1050 µM and the maximal velocity (Vmax) came to 1.945e-06 M/min. Moreover, in data set [3], the Km is 22.1 µM and the Vmax/Km amounted to 0.03244 min⁻¹. Besides, in data set [3] (setting [7]), the Vmax came to 7.161e-07 M/min.
As to `CC(C)=CCC/C(C)=C/CC/C(C)=C/CC[C@]1(C)CCc2cc(O)c(C)c(C)c2O1` [d-γ-tocotrienol], in data set [6], the “solubility in distilled water” value is “below detection limit of HPLC”.
`Cc1c(OC(=O)CN(C)C)cc2c(c1C)O[C@](C)(CCC[C@H](C)CCC[C@H](C)CCCC(C)C)CC2.Cl` [γ-TDMA, d-γ-tocopheryl N,N-dimethylaminoacetate hydrochloride]: in data set [5] (in vivo, iv), the “MRT as fold of MRT of racemic γ-CEHC administered group” value is “about 8 fold” and the “R-γ-CEHC in plasma after administration” value is given as “not detected”.
